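Following 48 hours of exposure in 96-well plates, responses at five concentrations were used to interpolate endpoints linearly. GI50 marks 50% less growth. Definition used: TGI = concentration required for complete inhibition of growth.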
Assays:
Test in all cases: DTP human tumour cell line panel, 48 h
OVCAR-3 ovarian = test system: OVCAR-3 ovarian
EKVX NSCLC = test system: EKVX NSCLC
SW-620 colon = test system: SW-620 colon
T-47D breast = test system: T-47D breast
NCI-H226 lung = test system: NCI-H226 lung
CAKI-1 renal = test system: CAKI-1 renal
NCI-H460 lung = test system: NCI-H460 lung
786-0 renal = test system: 786-0 renal
SNB-75 CNS = test system: SNB-75 CNS
COLO 205 colon = test system: COLO 205 colon

Structure (SMILES) | GI50 (OVCAR-3 ovarian) | TGI (OVCAR-3 ovarian) | GI50 (EKVX NSCLC) | TGI (EKVX NSCLC) | TGI (SW-620 colon) | GI50 (T-47D breast) | TGI (T-47D breast) | GI50 (NCI-H226 lung) | TGI (NCI-H226 lung) | TGI (CAKI-1 renal) | TGI (NCI-H460 lung) | TGI (786-0 renal) | TGI (SNB-75 CNS) | GI50 (COLO 205 colon) | TGI (COLO 205 colon) | GI50 (SW-620 colon) | GI50 (CAKI-1 renal) | GI50 (NCI-H460 lung) | GI50 (786-0 renal) | GI50 (SNB-75 CNS)
COc1cc(/C=C/c2cc(O)c3cc(C(C)=O)c(=O)oc3c2)cc2c1O[C@]1(C)CC[C@@H](O)C(C)(C)[C@H]1C2 | > 33.1 µM | > 89.1 µM | > 32.5 µM | > 64.1 µM | > 34.7 µM | > 23.8 µM | > 53.9 µM | > 23.7 µM | > 64.9 µM | > 39.4 µM | > 53.2 µM | > 25.3 µM | > 48 µM | > 27.5 µM | > 59.8 µM |  |  |  |  | 
Cn1cccc1-c1cc(-c2cccs2)nc(N)c1C#N | > 100 µM | > 100 µM | > 100 µM | > 100 µM | > 100 µM | > 100 µM | > 100 µM | > 100 µM | > 100 µM | > 100 µM | > 100 µM | > 100 µM | > 100 µM | > 100 µM | > 100 µM | > 100 µM | > 100 µM | > 100 µM | > 100 µM | 46 µM
CC(CCC(=O)O)[C@H]1CCC2[C@@H]3CC[C@@H]4CC(O)CC[C@]4(C)C3CC[C@@]21C (stereo not given in full) |  |  | 44.4 µM | > 100 µM | > 100 µM | 33.7 µM | > 100 µM | 63.5 µM | > 100 µM | 72.3 µM | 97.4 µM | > 100 µM | > 100 µM | 23.7 µM | 53.1 µM | 42.4 µM | 26.7 µM | 31 µM | 49.3 µM | 66.1 µM
COc1ccc2c(c1)/C(=C\c1c(C)nc3sccn13)C(=O)N2 | < 0.01 µM |  | 2.12 µM | > 100 µM | > 100 µM | 1.98 µM | > 67.2 µM | 6.55 µM | 74.4 µM | > 100 µM | > 100 µM | > 100 µM | > 100 µM | < 0.0506 µM |  | < 0.0476 µM | < 0.0485 µM |  |  | 0.372 µM
O=C(O)/C=C\C(=O)N1C/C(=C\c2ccccc2Cl)C(=O)/C(=C/c2ccccc2Cl)C1 | 2.4 µM | 5.51 µM | 5.24 µM | 18.3 µM |  | 4.48 µM | 16.2 µM | 1.97 µM | 3.84 µM | 15 µM |  | 4.06 µM | 14 µM | 2.27 µM | 4.33 µM |  | 4.29 µM |  | 2.18 µM | 3.8 µM
CC[C@@H](C(=O)O)C1CC[C@H](C)C([C@@H](C)[C@H](O)[C@H](C)C(=O)[C@H](CC)C2O[C@]3(C=C[C@@H](O)[C@]4(CC[C@@](C)(C5CC[C@](O)(CC)[C@H](C)O5)O4)O3)[C@H](C)C[C@@H]2C)O1 (stereo not given in full) | 0.0434 µM | 16.4 µM | 0.523 µM | 22.5 µM | 8.93 µM | 0.371 µM | 16 µM | 1.19 µM | 10.8 µM | 18.2 µM | 10.5 µM | 7.92 µM | 4.18 µM | 0.224 µM | 5.2 µM | 1.33 µM | 0.19 µM | 0.383 µM | 0.656 µM | 0.774 µM

— PubChem BioAssay (NCI)
